Measurements as given in patent US8652087B2, “Method for use of microdialysis” (priority 2009, dated 2014).

How the values were obtained:
[1] = at 37° C.; cited from earlier work
[2] = Charcoal MTZ adsorption kinetics study (PMD and direct donor sampling); type: physicochemical; details: 37° C., first minute after charcoal addition
Protocol: A charcoal suspension was prepared at least 24 hours before use by adding 0.6 g of activated charcoal (Sigma Chemical, St. Louis, Mo.) to 100 mL of 0.6% Dextran Solution (Birkmeier et al., 1995). A donor solution of MTZ in 0.005N NaOH was made with an initial concentration of C0=200 μg/mL and volume of 48 mL. A probe was immersed in the solution, and PMD was started before adding the charcoal using a dialysate that initially contained no MTZ. Samples were collected every 10 seconds, using a resting time of 8 seconds, a flow rate of 100 μL/min, and a sample volume of 5 μL. After collecting at least six samples, 2 mL of the charcoal suspension was quickly (in 1-2 seconds) mixed into 48 mL of stirred MTZ solution, giving a final volume of 50 mL. […] Samples were collected during 10 second intervals, and the start times for the sampling intervals were 0, 0.2, 0.4, 0.7, 1, 2, 5, 10 and 30 minutes. The flow rate was 100 μL/min, the rest time was 8 seconds, and the sample volume was 5 μL. The samples were immediately analyzed using HPLC. […] Direct sampling of the donor was also done at various times for comparison with the PMD data. The direct donor samples were immediately filtered to remove the activated charcoal and analyzed using HPLC.

[3] = test system: red blood cells; details: in the first 1-2 minutes; cited from earlier work
[4] = Benzocaine release from self-emulsifying microemulsion systems by PMD; type: physicochemical; details: occupying the probe window for one minute; Tween 20:Cremophor EL:peppermint oil systems diluted 1:25 in water
Protocol: The medium outside the probe served as the receiver in this case. Before the PMD experiments, various anhydrous liquid systems were made, to be used to release benzocaine. In all cases, two surfactants, Tween 20 and Cremophor EL (both from Sigma Chemical, St. Louis, Mo.), were blended in a 2:1 (weight:weight) ratio. Various amounts of peppermint oil were added (from 0 to 30% oil by weight) to make the anhydrous systems. Benzocaine (50 mg per gram of peppermint oil) was subsequently added to each system, and stirring was done until all benzocaine was dissolved and distributed within the oil and surfactant blend. These anhydrous systems were then diluted 1:25 in water, and used as the dialysate. A probe was immersed in 50 mL of water (which served as the receiver) that initially contained no drug. Since benzocaine is a weak base, various pH values were used, but the pH of the water and dialysate were the same in all cases. The dialysate (containing the microemulsions and acting as the donor) was pumped into the probe window, allowed to remain at rest for various resting times (5-100 seconds), pumped out and collected, and subsequently assayed for benzocaine content to determine the fraction of benzocaine lost as a function of the total time in the probe window. The flow rate Q was 100 μL/min and the sample volume was 5 μL.

SMILES	diffusion coefficient (value of the reference drug) [1]	decline of concentration during the first minute [2]	decrease of buffer concentration by uptake into red blood cells [3]	benzocaine lost from microemulsion dialysate [4]
CC(=O)/N=c1/sc(S(N)(=O)=O)nn1C [MTZ, methazolamide]	4×10^−6 cm^2/s	~50%	50%	
CCOC(=O)c1ccc(N)cc1 [benzocaine]				≤ 90%
